Literature values as cited in patent US9603811B2, “Pharmaceutical compositions of carotenoid chylomicrons” (HEALTH-EVER BIOTECH CO. LTD, priority 2013, dated 2017).
Read-outs that look alike come from different tables or passages of the source.

solubility in water: practically insoluble in water
solubility in water (listed as Solanorubin): insoluble in water
SMILES: CC(C)=CCC/C(C)=C/C=C/C(C)=C/C=C/C(C)=C/C=C/C=C(C)/C=C/C=C(C)/C=C/C=C(\C)CCC=C(C)C [solanorubin]
